The source of these data is ChEMBL document CHEMBL1201862, “PubChem BioAssay data set” (2004).

Test in all cases: NCI-60 cell line screen, 48 h
In assay [1] the test system is A549.
Assay [2] concerns HCT-116.
For assay [3], the system named is K562.
For assay [4], the system named is SK-MEL-28.
The test system of assay [5] is TK-10.
Assay [6] concerns ACHN.
In assay [7] the test system is EKVX.
Assay [8] has as its system CAKI-1.
Assay [9] deals with MDA-MB-231.
Assay [10] has as its system HOP-62.
The test system of assay [11] is KM12.
Assay [12] relates to A498.
Assay [13] deals with SF-295.
Assay [14] deals with UACC-257.
For assay [15], the system named is NCI-H23.
Assay [16] has as its system MOLT-4.
Assay [17] has as its system SF-268.
In assay [18] the test system is UACC-62.
Assay [19] deals with SNB-19.
For assay [20], the system named is PC-3.

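Each compound was tested at five concentrations against cells in 96-well plates for 48 hours. At the GI50, growth is halved.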 The source made the active and inactive calls. No stated cut-off is given here; in the data, active = GI50 up to about 1.1 µM and inactive = higher.

With `O/N=C1\C/C(=N\O)c2c(Br)sc(Br)c21`, the GI50 in assay [1] is 26.2 µM (inactive); in assay [2] it was 37.4 µM (inactive); in assay [3], 37.5 µM (inactive); in assay [4], 24.7 µM (inactive); in assay [5] it was 38.5 µM (inactive); in assay [6], > 100 µM (inactive). Further, the GI50 in assay [7] was 16.9 µM (inactive); in [8] it was 19.4 µM (inactive); in assay [9] it was 77.1 µM (inactive); in assay [10] it was 32.1 µM (inactive); in assay [11] it was 32.6 µM (inactive); in assay [12], 58.1 µM (inactive). Also, the GI50 is > 100 µM (inactive) in [13]; > 100 µM (inactive) in assay [14]; 20.4 µM (inactive) in assay [15]; 29.2 µM (inactive) in [16]; 17.4 µM (inactive) in assay [17]; 91.2 µM (inactive) in [18].

In the case of `CN1C(c2ccccc2)CC(O)CC1c1ccccc1` (stereo not drawn), the GI50 in [1], in [2], in assay [19], in assay [3], in assay [4] and in [5] was > 100 µM (inactive) each time. Moreover, the GI50 in [6], in assay [7], in [8], in assay [10], in assay [11] and in [12] was > 100 µM (inactive) in each case. For the same compound, the GI50 in assay [13], in assay [14], in assay [15], in assay [16], in [17] and in [18] was > 100 µM (inactive) in each case.

Take `Cc1ccc(O)c(C2=CC(c3cccc(Cl)c3)SC(=N)N2)c1` (stereo not drawn): the GI50 in assay [1] is 23.3 µM (inactive); in [2], 19.3 µM (inactive); in assay [19] it was 16.1 µM (inactive); in assay [3], 19.4 µM (inactive); in assay [5], 22.4 µM (inactive); in assay [6], 24.2 µM (inactive). Besides, the GI50 in assay [7] was 17.1 µM (inactive); in assay [8] it was 28.2 µM (inactive); in assay [10], 23 µM (inactive); in assay [11], 24.9 µM (inactive); in [13], 17.8 µM (inactive); in assay [14] it was 20.6 µM (inactive). Besides, the GI50 in assay [20] is 16.6 µM (inactive); in [15] it was 26.6 µM (inactive); in [16], 19.1 µM (inactive); in assay [17], 32.2 µM (inactive); in assay [18], 13.7 µM (inactive).

In the case of `CCN(CC)C(=S)N/N=C/c1ccccn1`, the GI50 in [1] was 0.0239 µM (active); in assay [2] it was < 0.01 µM (active); in assay [19] it was < 0.0118 µM (active); in assay [3], < 0.01 µM (active); in assay [4], 0.187 µM (active); in [6], < 0.0172 µM (active). The GI50 is < 0.01 µM (active) in [7]; < 0.01 µM (active) in [8]; < 0.01 µM (active) in assay [9]; < 0.01 µM (active) in assay [10]; < 0.0483 µM (active) in [13]; < 0.01 µM (active) in assay [14]. Moreover, the GI50 in [20] was < 0.01 µM (active); in [15], < 0.01 µM (active); in assay [16] it was < 0.01 µM (active); in [17] it was < 0.0177 µM (active); in assay [18], < 0.0328 µM (active).

`CC12ON=C(c3ccccc3)N1C=CN1C(c3ccccc3)=NOC12` (stereo not drawn): the GI50 in assay [1] was > 100 µM (inactive); in [2], 98.6 µM (inactive); in assay [19], > 100 µM (inactive); in assay [5], > 100 µM (inactive); in [6], > 100 µM (inactive); in assay [7], > 100 µM (inactive). The GI50 in assay [8], in assay [9], in assay [10], in assay [11], in assay [13] and in [14] was > 100 µM (inactive) each time. The GI50 in assay [20], in assay [15], in assay [17] and in [18] was > 100 µM (inactive) in each case.

Regarding `CN(C)c1ccc(/C=N/C23CC4CC(CC(C4)C2)C3)cc1`, the GI50 in [1], in assay [2], in assay [19], in [3], in assay [4] and in assay [5] was > 100 µM (inactive) throughout. In addition, the GI50 in assay [6], in assay [7], in assay [8], in assay [10], in assay [11] and in [12] was > 100 µM (inactive) throughout. The GI50 in [13], in [14], in assay [15], in [16], in [17] and in assay [18] was > 100 µM (inactive) throughout.

As to `O=c1c(NO)c([N+](=O)[O-])cnn1-c1ccccc1`, the GI50 in [1] was 18.5 µM (inactive); in assay [2], 2.62 µM (inactive); in [19] it was 10.9 µM (inactive); in [3], 0.908 µM (active); in assay [4], 3.43 µM (inactive); in assay [5], 18.4 µM (inactive). Besides, the GI50 was 8.53 µM (inactive) in assay [6]; 11.6 µM (inactive) in [7]; 5.53 µM (inactive) in [8]; 8.83 µM (inactive) in assay [10]; 9.62 µM (inactive) in assay [11]; 20.6 µM (inactive) in [12]. Besides, the GI50 is 12.2 µM (inactive) in [13]; 6.37 µM (inactive) in assay [14]; 1.55 µM (inactive) in assay [20]; 6.55 µM (inactive) in assay [15]; 2.39 µM (inactive) in assay [16]; 12.5 µM (inactive) in assay [17]. Besides, the GI50 in [18] was 4.2 µM (inactive).

As to `O=c1ccn([C@H]2CSC[C@@H](CO)C2)c(=O)[nH]1`, the GI50 in [1], in assay [2], in assay [19], in [3], in assay [4] and in assay [5] was > 100 µM (inactive) in each case. In addition, the GI50 in assay [6], in assay [7], in assay [8], in assay [10], in assay [11] and in assay [12] was > 100 µM (inactive) each time. Further, the GI50 in [13] was > 10 µM (inactive); in assay [14] it was > 100 µM (inactive); in assay [15] it was > 100 µM (inactive); in assay [16], > 100 µM (inactive); in [17], > 100 µM (inactive); in assay [18], > 100 µM (inactive).

With `O=c1cc(N2CCCC2)[nH]c(=O)n1Cc1ccccc1`, the GI50 in assay [1], in assay [2], in assay [19], in assay [3], in [4] and in assay [5] was > 100 µM (inactive) throughout. For the same compound, the GI50 in assay [6], in assay [7], in [8], in assay [9], in assay [10] and in assay [11] was > 100 µM (inactive) each time. Further, the GI50 in assay [13], in assay [14], in assay [20], in [15] and in [16] was > 100 µM (inactive) throughout.

Turning to `CCCCc1ccc2[n+](c1)C(C(=O)OCC)=PC2` (stereo not drawn), the GI50 in assay [1], in assay [2], in [4], in assay [5], in assay [6] and in assay [7] was > 100 µM (inactive) in each case. Also, the GI50 in assay [8], in [10], in assay [11], in assay [12], in [13] and in assay [14] was > 100 µM (inactive) in each case. Also, the GI50 is > 100 µM (inactive) in assay [20]; 86.1 µM (inactive) in assay [15]; 37.5 µM (inactive) in assay [16]; > 100 µM (inactive) in assay [17]; > 100 µM (inactive) in [18].

For the compound `CCOP(=O)(C=C=C1CCC2[C@@H]3CCc4cc(OC)ccc4C3CC[C@]12C)OCC` (stereo partly drawn), the GI50 is 4.07 µM (inactive) in [1]; 5.22 µM (inactive) in [2]; 13.6 µM (inactive) in assay [19]; 0.348 µM (active) in [3]; 10.6 µM (inactive) in [4]; 12.7 µM (inactive) in assay [5]. Also, the GI50 is 10.3 µM (inactive) in assay [6]; 10 µM (inactive) in [7]; 12.9 µM (inactive) in [8]; 15.3 µM (inactive) in assay [10]; 12.4 µM (inactive) in [11]; 12 µM (inactive) in assay [12]. Further, the GI50 in assay [13] is 5.6 µM (inactive); in [14], 6.21 µM (inactive); in assay [20], 3.92 µM (inactive); in assay [15] it was 5.73 µM (inactive); in assay [17] it was 11.9 µM (inactive); in assay [18] it was 3.89 µM (inactive).
